Experimental data from patent US20170137433A1, “CRYSTALLINE, ANHYDROUS FORMS OF OXYMORPHONE HYDROCHLORIDE” (Endo Pharmaceuticals Inc., priority 2011, published 2017).
Where a name gives a salt, the structure may show the parent alone.

Experiment: Solid-form stability of the polymorph (heat treatment / storage observation)
Assay type: physicochemical
Conditions: at room temperature and at elevated temperatures; solid form obtained by heating at 200° C. for 3-4 hours in a drying oven
Method: This polymorph was obtained by a heat treatment of either the above-described polymorph mixture or of oxymorphone hydrochloride monohydrate at 200° C. for a period of 3-4 hours in a drying oven.

SMILES: CN1CC[C@]23c4c5ccc(O)c4O[C@H]2C(=O)CC[C@@]3(O)[C@H]1C5 [second polymorph, crystalline, anhydrous hydrochloride salt of 4,5α-epoxy-3,14-dihydroxy-17-methylmorphinan-6-one]
- polymorphic form stability: stable at room temperature and at elevated temperatures
